Among the targets are Cytochrome P450 3A4 (Homo sapiens, UniProt P08684); Cytochrome P450 2C9 (Homo sapiens, UniProt P11712); Cytochrome P450 2D6 (Homo sapiens, UniProt P10635).
In data set [1] the target is T1, Heat shock factor protein 1 (Mus musculus, UniProt P38532).
T1 sequence (P38532 whole entry): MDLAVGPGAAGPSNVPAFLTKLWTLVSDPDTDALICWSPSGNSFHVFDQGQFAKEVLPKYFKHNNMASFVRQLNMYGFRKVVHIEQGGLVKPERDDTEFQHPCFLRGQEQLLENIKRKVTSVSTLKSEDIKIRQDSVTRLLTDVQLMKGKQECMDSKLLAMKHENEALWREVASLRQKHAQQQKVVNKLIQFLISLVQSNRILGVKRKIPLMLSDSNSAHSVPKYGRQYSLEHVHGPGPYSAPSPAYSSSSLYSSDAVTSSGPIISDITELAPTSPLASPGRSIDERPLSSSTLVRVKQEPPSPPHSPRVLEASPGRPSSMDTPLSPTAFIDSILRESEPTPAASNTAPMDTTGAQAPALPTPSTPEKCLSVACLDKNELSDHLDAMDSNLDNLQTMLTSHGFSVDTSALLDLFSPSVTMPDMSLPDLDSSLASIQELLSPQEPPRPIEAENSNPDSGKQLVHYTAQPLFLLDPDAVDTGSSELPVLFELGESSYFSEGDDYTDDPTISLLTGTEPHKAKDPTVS
The experiment in a line: enhancement of HSF1-driven luciferase signal – cell-based, NIH3T3, luminescence, dose retest, confirmation (AID 435004).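 Also: stress induced by proteasome inhibitor MG132 added 30 min after compound; luciferase reporter driven by HSF1 response element in NIH3T3 cells; actives raise luminescence as potentiators of the MG132 stress response.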 Type of data set: functional.

The target of data set [2] is Luciferin 4-monooxygenase (Photinus pyralis, UniProt P08659). The experiment in a line: inhibition of purified Photinus pyralis luciferase – biochemical, luminescence, dose response (AID 1891).
A short description of data set [3]: Luminescence Cell-Based Dose Confirmation HTS to Identify Inhibitors of Platelet Dense Granule Release. [Related pubchem assays: 1663 (Primary HTS), 1678 (Summary of Project)]. Format: functional.
Another data set deals with Genome polyprotein (dengue virus type 2, UniProt P29990). As to the kind of experiment: flavivirus cap methylation enzyme inhibition – biochemical, confirmation dose response, primary screen (AID 588689). Type of data set: functional.
A further data set relates to INS1. The experiment in a line: INS-1E survival protection against cytokine death – cell-based, luminescence, retest, dose response (AID 449756).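 Also: cell death triggered by IL-1 beta plus TNF-alpha plus IFN-gamma mixture; protective hits raise ATP signal compared with cytokine alone wells.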 Type of data set: functional. The conditions noted are these: Rattus norvegicus.
Data set [4] has as its target T2, Histone-lysine N-methyltransferase NSD2 (Homo sapiens, UniProt O96028).
T2 sequence (O96028 whole entry): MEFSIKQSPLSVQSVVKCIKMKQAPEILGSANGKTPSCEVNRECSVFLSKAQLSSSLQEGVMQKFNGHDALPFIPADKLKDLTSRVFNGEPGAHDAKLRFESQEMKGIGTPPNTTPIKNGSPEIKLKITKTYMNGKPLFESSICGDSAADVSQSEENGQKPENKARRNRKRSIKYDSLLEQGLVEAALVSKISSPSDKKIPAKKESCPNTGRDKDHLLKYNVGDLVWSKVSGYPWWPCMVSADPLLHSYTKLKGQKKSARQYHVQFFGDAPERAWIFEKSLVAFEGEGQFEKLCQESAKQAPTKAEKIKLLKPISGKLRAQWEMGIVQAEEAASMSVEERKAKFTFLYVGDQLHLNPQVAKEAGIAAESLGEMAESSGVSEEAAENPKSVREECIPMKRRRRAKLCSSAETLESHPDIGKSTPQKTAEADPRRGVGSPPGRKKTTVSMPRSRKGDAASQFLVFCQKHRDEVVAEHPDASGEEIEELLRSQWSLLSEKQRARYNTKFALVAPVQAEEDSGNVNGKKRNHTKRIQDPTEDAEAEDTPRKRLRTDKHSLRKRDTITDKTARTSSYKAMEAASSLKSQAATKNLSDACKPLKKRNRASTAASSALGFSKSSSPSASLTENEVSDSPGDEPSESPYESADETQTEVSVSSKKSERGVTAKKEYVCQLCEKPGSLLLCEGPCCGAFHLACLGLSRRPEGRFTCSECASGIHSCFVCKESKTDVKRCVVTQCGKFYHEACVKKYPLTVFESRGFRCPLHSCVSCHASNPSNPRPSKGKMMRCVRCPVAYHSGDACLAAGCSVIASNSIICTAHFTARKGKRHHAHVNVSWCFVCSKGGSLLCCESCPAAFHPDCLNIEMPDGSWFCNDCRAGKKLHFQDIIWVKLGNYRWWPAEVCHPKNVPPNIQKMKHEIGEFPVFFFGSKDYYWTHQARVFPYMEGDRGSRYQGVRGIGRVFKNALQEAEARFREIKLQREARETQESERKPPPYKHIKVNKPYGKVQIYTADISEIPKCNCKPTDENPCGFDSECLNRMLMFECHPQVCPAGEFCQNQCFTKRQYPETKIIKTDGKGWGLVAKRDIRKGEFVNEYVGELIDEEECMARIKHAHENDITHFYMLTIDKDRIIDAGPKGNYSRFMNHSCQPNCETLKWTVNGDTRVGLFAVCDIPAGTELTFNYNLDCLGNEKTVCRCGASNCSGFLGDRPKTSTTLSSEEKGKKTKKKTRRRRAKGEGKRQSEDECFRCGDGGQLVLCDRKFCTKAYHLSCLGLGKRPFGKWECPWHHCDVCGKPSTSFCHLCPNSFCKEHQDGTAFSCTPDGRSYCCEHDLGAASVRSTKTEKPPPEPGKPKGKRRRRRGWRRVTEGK
Type of data set: biochemical.

The target in data set [5] is Induced myeloid leukemia cell differentiation protein Mcl-1 (Homo sapiens, UniProt Q07820). Format: functional.
A further data set has as its system H9c2. The experiment in a line: cells. The following applies: Rattus norvegicus, H9c2, Myocardium. Type of data set: functional, cell-based.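 Also: confirmatory concentration-response retest of ultra-high-throughput screening hits for modulation of myocardial damage; cell death induced by hydrogen peroxide oxidative stress; compound pretreatment for 60 min then peroxide exposure for 2 h; potency is for protecting the cells against peroxide damage rather than for killing them.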
The nature of data set [6]: blockers of HIV-1 envelope-mediated cell-cell fusion – cherry-pick, dose response (AID 652057). Format: functional, cell-based.
Data set [7] can be described thus: blockers of HIV-1 ZM109 envelope-driven cell-cell fusion – HeLa effector, CEM target cells, luciferase, cherry-pick, dose response (AID 652058).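 Also: luciferase signal from HIV-1 Env mediated cell-cell fusion of effector and target cells.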 Format: functional, cell-based.
The nature of data set [8]: off-target signal loss in HeLa-CEM21 co-culture – HeLa F-luc CTL cells, cherry-picked, counter-screen for HIV-1 Env fusion inhibitor project, dose response (AID 652040).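 Also: potency for signal decrease marking cytotoxic or nonspecific inhibition.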 Format: functional, cell-based. In general terms: A counterscreen serves to expose hits that act by an unwanted route or on another target.
Data set [9] in a line: HEK-293T viability loss after treatment – luminescence, T-cell screen hits, cytotoxicity control for TCR NF-kB inhibitor project, dose response (AID 489026).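 Also: cells exposed to compound about 14 hours before the viability readout.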 Type of data set: functional, cell-based.
Data set [10] in a line: reduction of Shn3 3'UTR-driven luciferase in osteoblasts – cell-based, Clone20 osteoblasts, firefly luciferase, cherry-picked, dose response (AID 624132).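 Also: firefly luciferase luminescence from reporter carrying the Shn3 3'UTR in osteoblasts.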 Format: functional.
Data set [11] can be described thus: loss of viability in HepG2 cells – cell-based, CellTiter-Glo, cherry-picked, cytotoxicity control for Shn3 inhibitor project, dose response (AID 624134). Format: functional. A general note: ATP-based viability assays read luminescence as a measure of living cells.
Data set [12] can be described thus: non-specific 3'UTR reporter inhibition in Clone20-Shn3RL – cell-based, Renilla luciferase, cherry-picked, counter-screen for Shn3 inhibitor project, dose response (AID 624133). Type of data set: functional.
The nature of data set [13]: blockers of bursicon-stimulated LGR2 cAMP reporter – cell-based, HEK293, CRE-luciferase reporter, cherry pick, set 2, dose response (AID 743343).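 Also: transfected cells were stimulated with diluted bursicon conditioned medium after compound addition.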 Format: functional. (In general: Reporter assays use an easily measured gene product as a stand-in for the process of interest.)
Data set [14] in a line: blockade of melanocortin 4 receptor signaling – cell-based, plate reader, cherry pick, counter-screen for LGR2 antagonist project, dose response (AID 743444).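 Also: transfected HEK 293 cells stimulated with alpha-MSH peptide; potency of inhibitors of the alpha-MSH evoked signal.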 Type of data set: functional.
Data set [15] can be described thus: HIV-1 AD8 envelope cell-cell fusion blockers – cherry-pick, dose response (AID 652062).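 Also: luciferase signal from cell-cell fusion driven by HIV-1 clade B AD8 Env; potency is for inhibitors of fusion seen as a drop in luminescence.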 Type of data set: functional, cell-based.
Data set [16] deals with FAD-linked sulfhydryl oxidase ALR (Homo sapiens, UniProt P55789). As to the kind of experiment: ALR-catalysed DTT oxidation blockers – biochemical, H2O2 detection, luminescence, cherry-pick, dose response (AID 493248).

In ChEMBL document CHEMBL1201862, “PubChem BioAssay data set” (2004) one finds EC50, AC50 and IC50 data, which are given here for 23 molecules.

Calls of active or inactive are those of the source. Where only a bound is given, the exact number is not on record here.

Chain of Genome polyprotein (P29990 2492-3391 limits assumed): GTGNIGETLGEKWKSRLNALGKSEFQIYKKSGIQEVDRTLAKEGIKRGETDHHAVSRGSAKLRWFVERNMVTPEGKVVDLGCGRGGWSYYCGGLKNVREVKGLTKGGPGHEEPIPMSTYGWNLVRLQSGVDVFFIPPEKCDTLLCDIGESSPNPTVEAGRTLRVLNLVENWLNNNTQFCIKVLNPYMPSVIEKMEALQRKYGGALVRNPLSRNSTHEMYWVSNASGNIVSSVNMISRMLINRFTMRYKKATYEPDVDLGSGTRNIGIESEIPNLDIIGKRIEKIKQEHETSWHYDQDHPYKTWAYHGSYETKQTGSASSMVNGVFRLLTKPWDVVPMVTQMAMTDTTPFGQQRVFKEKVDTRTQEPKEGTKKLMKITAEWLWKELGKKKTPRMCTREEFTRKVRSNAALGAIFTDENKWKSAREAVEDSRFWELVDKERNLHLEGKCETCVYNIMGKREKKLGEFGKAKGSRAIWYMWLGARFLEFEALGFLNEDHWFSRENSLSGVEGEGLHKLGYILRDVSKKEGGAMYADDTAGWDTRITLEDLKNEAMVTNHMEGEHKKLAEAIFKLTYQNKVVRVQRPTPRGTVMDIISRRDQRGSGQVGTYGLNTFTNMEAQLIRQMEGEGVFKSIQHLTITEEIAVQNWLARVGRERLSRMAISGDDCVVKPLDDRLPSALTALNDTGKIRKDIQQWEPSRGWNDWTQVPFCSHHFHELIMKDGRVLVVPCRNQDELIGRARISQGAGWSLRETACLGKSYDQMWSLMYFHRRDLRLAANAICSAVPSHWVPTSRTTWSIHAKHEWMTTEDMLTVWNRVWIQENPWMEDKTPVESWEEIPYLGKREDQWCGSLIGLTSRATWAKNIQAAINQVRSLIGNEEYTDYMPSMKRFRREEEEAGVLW
Chain of Induced myeloid leukemia cell differentiation protein Mcl-1 (Q07820 whole entry): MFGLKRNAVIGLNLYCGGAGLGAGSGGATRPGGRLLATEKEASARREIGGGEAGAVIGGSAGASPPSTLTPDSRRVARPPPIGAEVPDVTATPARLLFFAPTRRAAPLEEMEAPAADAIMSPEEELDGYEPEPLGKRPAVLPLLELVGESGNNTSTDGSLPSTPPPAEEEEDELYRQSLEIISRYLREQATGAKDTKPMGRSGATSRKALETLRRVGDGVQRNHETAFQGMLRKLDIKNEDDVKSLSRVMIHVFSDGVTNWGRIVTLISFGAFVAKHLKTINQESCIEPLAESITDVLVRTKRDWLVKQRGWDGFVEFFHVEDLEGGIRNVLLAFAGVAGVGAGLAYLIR
Chain of Cytochrome P450 2C9 (P11712 whole entry): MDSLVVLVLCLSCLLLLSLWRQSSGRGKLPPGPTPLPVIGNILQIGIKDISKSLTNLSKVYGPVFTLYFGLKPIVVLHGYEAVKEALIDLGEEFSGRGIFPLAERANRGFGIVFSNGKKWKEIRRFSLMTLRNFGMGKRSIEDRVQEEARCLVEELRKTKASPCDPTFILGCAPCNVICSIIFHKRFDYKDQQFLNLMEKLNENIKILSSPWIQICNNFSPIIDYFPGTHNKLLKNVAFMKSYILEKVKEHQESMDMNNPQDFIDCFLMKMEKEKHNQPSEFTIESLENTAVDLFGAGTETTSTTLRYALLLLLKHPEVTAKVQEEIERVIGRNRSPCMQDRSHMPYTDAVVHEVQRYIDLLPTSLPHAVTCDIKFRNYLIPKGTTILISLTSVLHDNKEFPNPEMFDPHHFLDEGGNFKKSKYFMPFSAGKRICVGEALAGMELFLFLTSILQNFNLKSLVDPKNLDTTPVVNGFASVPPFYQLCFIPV
Chain of Cytochrome P450 3A4 (P08684 whole entry): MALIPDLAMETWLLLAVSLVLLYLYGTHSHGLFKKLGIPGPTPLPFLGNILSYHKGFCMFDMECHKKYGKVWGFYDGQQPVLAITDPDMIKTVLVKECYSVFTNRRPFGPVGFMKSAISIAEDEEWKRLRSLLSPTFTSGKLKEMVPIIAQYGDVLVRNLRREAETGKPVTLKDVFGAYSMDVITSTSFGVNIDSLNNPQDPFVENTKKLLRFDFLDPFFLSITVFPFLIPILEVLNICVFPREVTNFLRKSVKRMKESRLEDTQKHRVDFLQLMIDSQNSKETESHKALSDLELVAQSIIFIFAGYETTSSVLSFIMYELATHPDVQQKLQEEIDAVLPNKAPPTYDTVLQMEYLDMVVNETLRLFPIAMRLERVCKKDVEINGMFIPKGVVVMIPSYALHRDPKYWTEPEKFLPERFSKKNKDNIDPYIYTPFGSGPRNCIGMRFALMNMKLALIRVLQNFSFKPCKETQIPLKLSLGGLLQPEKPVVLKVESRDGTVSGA
Chain of FAD-linked sulfhydryl oxidase ALR (P55789 whole entry): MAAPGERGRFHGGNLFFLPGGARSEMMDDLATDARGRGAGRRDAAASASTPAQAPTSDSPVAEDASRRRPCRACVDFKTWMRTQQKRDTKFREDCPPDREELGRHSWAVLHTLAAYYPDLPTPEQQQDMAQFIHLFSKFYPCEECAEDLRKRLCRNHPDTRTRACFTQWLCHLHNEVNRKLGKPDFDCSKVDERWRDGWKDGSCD
Chain of Cytochrome P450 2D6 (P10635 whole entry): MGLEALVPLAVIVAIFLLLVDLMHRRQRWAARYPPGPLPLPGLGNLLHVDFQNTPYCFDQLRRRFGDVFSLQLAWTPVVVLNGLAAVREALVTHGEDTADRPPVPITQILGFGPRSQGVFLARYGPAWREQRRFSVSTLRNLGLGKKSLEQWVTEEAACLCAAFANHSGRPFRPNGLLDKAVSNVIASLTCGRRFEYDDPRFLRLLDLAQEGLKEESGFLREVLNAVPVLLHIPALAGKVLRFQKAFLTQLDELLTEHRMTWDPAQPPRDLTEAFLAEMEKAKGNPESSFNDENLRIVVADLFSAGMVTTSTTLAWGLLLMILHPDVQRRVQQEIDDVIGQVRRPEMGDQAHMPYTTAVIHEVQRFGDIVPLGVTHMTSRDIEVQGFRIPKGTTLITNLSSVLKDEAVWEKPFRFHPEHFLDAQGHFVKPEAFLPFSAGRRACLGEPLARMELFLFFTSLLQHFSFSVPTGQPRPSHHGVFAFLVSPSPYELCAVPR
Chain of Luciferin 4-monooxygenase (P08659 whole entry): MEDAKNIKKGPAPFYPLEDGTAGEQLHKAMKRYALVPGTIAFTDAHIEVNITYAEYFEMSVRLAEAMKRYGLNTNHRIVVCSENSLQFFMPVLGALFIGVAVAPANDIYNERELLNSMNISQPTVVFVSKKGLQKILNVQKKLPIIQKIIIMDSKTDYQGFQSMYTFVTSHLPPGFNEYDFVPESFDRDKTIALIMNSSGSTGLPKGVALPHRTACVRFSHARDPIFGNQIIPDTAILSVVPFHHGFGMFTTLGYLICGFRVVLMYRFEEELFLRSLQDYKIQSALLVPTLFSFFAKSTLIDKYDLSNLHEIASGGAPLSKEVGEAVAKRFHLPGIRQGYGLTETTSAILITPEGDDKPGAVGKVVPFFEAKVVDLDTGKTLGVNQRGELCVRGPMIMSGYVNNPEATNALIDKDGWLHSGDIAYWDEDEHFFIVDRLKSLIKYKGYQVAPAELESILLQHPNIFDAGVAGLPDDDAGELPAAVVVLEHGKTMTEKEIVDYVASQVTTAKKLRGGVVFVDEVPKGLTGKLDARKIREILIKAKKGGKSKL

`O=C(CCCn1c(=S)[nH]c2ccc(Br)cc2c1=O)NCC1CCCO1` (stereo unspecified): the EC50 in data set [1] is > 260 µM (inactive). Also, the concentration at half-maximal activity (AC50) on Cytochrome P450 3A4 is 35.5 µM (inconclusive); on Cytochrome P450 2C9, “inconclusive”.
`COc1ccccc1C(=O)NN1C(=O)C2C3C=CC(O3)C2C1=O` (stereo unspecified): the EC50 in data set [2] and in data set [3] was > 112 µM (not active) each time. For the same molecule, the AC50 is 17.8 µM (inconclusive) on Cytochrome P450 3A4 and “inconclusive” on Cytochrome P450 2C9.
`O=C(O)c1[nH]c2ccccc2c1C(c1cccc(O)c1)c1c(C(=O)O)[nH]c2ccccc12`: the IC50 at Genome polyprotein is 23.2 µM (active).
For the molecule `Cc1ccc(O)c(CNc2cccc3cccnc23)c1`, the concentration at half-maximal activity (AC50) is 13.2 µM (active) in the data set on INS1 and > 20 µM (inactive) in data set [4].
Consider `Cc1ccc(-c2ccc(/C=C3/NC(=O)NC3=O)o2)cc1[N+](=O)[O-]`, for which the IC50 in [5] was 4.36 µM (active).
Take `CCn1c(SC)nc(=O)c(C(c2ccc(OC)c(O)c2)c2c(O)n(CC)c(SC)nc2=O)c1O`: on Genome polyprotein, the IC50 was 50 µM (active).
As to `O=C(Cn1[nH]c(=O)c2ccccc2c1=O)N1CCN(S(=O)(=O)c2ccc(Cl)cc2)CC1`, the IC50 in the data set on H9c2 is > 79 µM (inactive).
As to `O=C1c2cccnc2C(Nc2ccc(S(=O)(=O)N3CCCCCC3)cc2)N1Cc1ccccc1` (stereo unspecified), the AC50 in data set [6] is 27.2 µM (active); in data set [7] it was 30.5 µM (active); in data set [8] it was 32.2 µM (active).
For `Oc1ccc2c(c1)nc(O)c1ccccc12`, the IC50 with H9c2 was > 79 µM (inactive).
Take `CCOC(=O)NCCc1c(C)nc2c(c(C)nn2C(C)(C)C)c1C`: the AC50 in data set [4] is > 20 µM (inactive).
On to `O=C(Nc1cccc(C(F)(F)F)c1)c1sc(Cl)nc1C(F)(F)F`, for which the IC50 in data set [9] is > 80 µM (inactive). The AC50 in [10] was 9.06 µM (active); in data set [11], > 70 µM (inactive); in [12] it was 15.8 µM (active).
Consider `CN(C)c1ccc(C(CNC(=O)c2ccccc2Br)c2c[nH]c3ccccc23)cc1` (stereo unspecified), for which the IC50 in data set [5] is on record as 2.82 µM (not active).
With `Cc1ccc(-c2nc(-c3ccncc3)no2)c(Cl)c1`, the values for the AC50 in data set [13] and in data set [14] were 10.3 µM (active) and 12.5 µM (active), respectively.
As for `Cc1ccc(NC(=O)CSc2nc(-c3ccco3)cc(C(F)(F)F)n2)cc1C`, the IC50 in [9] is > 80 µM (inactive).
On to `COC(=O)CCCCC1=CCC2C(=O)C=C(O)C2C1` (stereo unspecified), for which, in [4], the AC50 is > 20 µM (inactive).
On to `COc1ccc(NC(=O)Cc2c(SC)c3ccccc3n2Cc2ccccc2)cc1`, for which the half-inhibitory concentration (IC50) in [5] is 6.18 µM (not active).
Take `N#Cc1ccc(C(c2nnnn2CCc2ccccc2)N2CCCCCC2)cc1` (stereo unspecified): the AC50 in data set [6] is 4.92 µM (active); in data set [7], 12.1 µM (active); in data set [8], 20.2 µM (active); in [15] it was 10.2 µM (active).
Take `COc1ccc(C(=O)Nc2ccc3[nH]c(-c4cccc(OC)c4)cc(=O)c3c2)cc1`: the IC50 in data set [9] is > 80 µM (inactive).
For `CC(C(=O)NC1CCCC1)N(Cc1ccco1)C(=O)c1snc(C(=O)NC2CCCC2)c1N` (stereo unspecified), the IC50 in data set [5] was 8.77 µM (not active).
For the molecule `O=C(O)CCCN1C(=O)/C(=C\c2ccccc2OCc2ccccc2)SC1=S`, on Genome polyprotein, the IC50 was 36.7 µM (active).
In the case of `COc1ccc(N2CCC(CNC(=O)Nc3ccc(OC)cc3OC)C2)cc1` (stereo unspecified), the IC50 in [5] is 1.14 µM (active). The AC50 in data set [16] is 17.2 µM (active); on Cytochrome P450 2D6, 28.2 µM (inconclusive).
Regarding `C[C@H]1Cn2cnc(C(=O)N3CCN(c4ccccc4)CC3)c2C(=O)N1`, the AC50 is 3.57 µM (active) in data set [6], 6.04 µM (active) in data set [7], 7.64 µM (active) in data set [8] and 13.4 µM (active) in data set [15].
With `CCS(=O)(=O)N1Cc2ccccc2CC1C(=O)NC(C)C12CC3CC(CC(C3)C1)C2` (stereo unspecified), the AC50 in [6] was 3.24 µM (active); in [7] it was 3.91 µM (active); in [8], 4.99 µM (active); in data set [15], 3.56 µM (active).

The EC50 is the concentration that produces a half-maximal response. For orientation: AC50 means the midpoint of the concentration-response curve, whichever way the signal moves. Usually IC50 stands for the concentration that gives 50% inhibition.
